According to US8163728B2, “Pyrazoles” (Hoffmann-La Roche Inc., priority 2009, dated 2012):

The molecules below were run against T1, GABA A α5 (Homo sapiens, UniProt P18507+P31644) (assay: [3H]flumazenil competition binding, human GABA A α5β3γ2 receptors in HEK293 cell membranes). Details: human receptor α5β3γ2 transiently transfected in HEK293; 0.5 nM [3H]flumazenil; 1 hour at 4° C.; means of two determinations; read-out: hKi GABA A α5.
T1 construct: expressed in transfected cells; host or cells: HEK293 cells, transiently transfected; membranes prepared from cell pellets
In short: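 Competition with [3H]flumazenil for binding to membranes of HEK293 cells transiently expressing human α5β3γ2, in Krebs-tris buffer pH 7.5. Incubated to equilibrium 1 h at 4 °C, filtered and scintillation-counted; Ki values are means of two determinations.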

Row | Ki | Compound
1 | 17.5 nM | Cc1onc(-c2ccccc2)c1COc1cc(C(=O)NCCO)[nH]n1 [Example 6, 5-(5-Methyl-3-phenyl-isoxazol-4-ylmethoxy)-2H-pyrazole-3-carboxylic acid (2-hydroxy-ethyl)-amide]
2 | 30.2 nM | Cc1onc(-c2ccccn2)c1COc1cc(C(=O)NC(C)C)n(C)n1 [Example 78, 2-Methyl-5-(5-methyl-3-pyridin-2-yl-isoxazol-4-ylmethoxy)-2H-pyrazole-3-carboxylic acid isopropylamide]
3 | 17.8 nM | Cc1onc(-c2ccc(F)cn2)c1COc1cc(C(=O)NC(C)(C)C)[nH]n1 [Example 19, 5-[3-(5-Fluoro-pyridin-2-yl)-5-methyl-isoxazol-4-ylmethoxy]-2H-pyrazole-3-carboxylic acid tert-butylamide]
4 | 8.1 nM | CCNC(=O)c1cc(/C=C/c2c(-c3ccc(F)cc3)noc2C)n[nH]1 [Example 141, 5-{(E)-2-[3-(4-Fluoro-phenyl)-5-methyl-isoxazol-4-yl]vinyl}-2H-pyrazole-3-carboxylic acid ethylamide]
5 | 20.2 nM | CCCCc1noc(C)c1COc1cc(C(=O)NCCO)[nH]n1 [Example 33, 5-(3-Butyl-5-methyl-isoxazol-4-ylmethoxy)-2H-pyrazole-3-carboxylic acid (2-hydroxyethyl)-amide]
6 | 8.7 nM | CCCCc1noc(C)c1COc1cc(C(=O)NC2CCOCC2)n(C)n1 [Example 88, 5-(3-Butyl-5-methyl-isoxazol-4-ylmethoxy)-2-methyl-2H-pyrazole-3-carboxylic acid (tetra-hydro-pyran-4-yl)-amide]
7 | 17.8 nM | Cn1nc(OCc2c(-c3ccc(Cl)cc3)noc2CO)cc1C(=O)NC(C)(C)CO [Example 107, 5-[3-(4-Chloro-phenyl)-5-hydroxymethyl-isoxazol-4-ylmethoxy]-2-methyl-2H-pyrazole-3-carboxylic acid (2-hydroxy-1,1-dimethyl-ethyl)-amide]
8 | 7.8 nM | CCCCc1noc(C)c1COc1cc(C(=O)N[C@@H](C)CO)[nH]n1 [Example 27, 5-(3-Butyl-5-methyl-isoxazol-4-ylmethoxy)-2H-pyrazole-3-carboxylic acid ((S)-2-hydroxy-1-methyl-ethyl)-amide]
9 | 23.3 nM | Cc1onc(-c2ccc(F)cc2)c1COc1cc(C(=O)NN(C)C)n(C)n1 [Example 48, 5-[3-(4-Fluoro-phenyl)-5-methyl-isoxazol-4-ylmethoxy]-2-methyl-2H-pyrazole-3-carboxylic acid N′,N′-dimethyl-hydrazide]
10 | 25.2 nM | CCCCc1noc(C)c1COc1cc(C(=O)N[C@@H](C)CO)[nH]n1 (single isomer, unassigned) [Example 30]
11 | 55.6 nM | Cc1onc(-c2ccc(F)cn2)c1CNc1cc(C(=O)NCC2CC2)n(C)n1 [Example 166, N-(Cyclopropylmethyl)-3-((3-(5-fluoropyridin-2-yl)-5-methylisoxazol-4-yl)methylamino)-1-methyl-1H-pyrazole-5-carboxamide]
12 | 30.3 nM | Cc1onc(-c2ccccn2)c1CNc1cc(C(=O)NC2(C)COC2)n(C)n1 [Example 162, 1-Methyl-3-((5-methyl-3-(pyridin-2-yl)isoxazol-4-yl)methylamino)-N-(3-methyloxetan-3-yl)-1H-pyrazole-5-carboxamide]
13 | 2.4 nM | Cc1onc(-c2ccc(F)cc2)c1/C=C/c1cc(C(=O)N2CC3(COC3)C2)n(C)n1 [Example 135, (5-{(E)-2-[3-(4-Fluoro-phenyl)-5-methyl-isoxazol-4-yl]-vinyl}-2-methyl-2H-pyrazol-3-yl)-(2-oxa-6-aza-spiro[3.3]hept-6-yl)-methanone]
14 | 6.6 nM | Cc1onc(-c2ccccc2)c1COc1cc(C(=O)NC2CCOC2)[nH]n1 (racemic) [Example 4, Rac-5-(5-Methyl-3-phenyl-isoxazol-4-ylmethoxy)-2H-pyrazole-3-carboxylic acid (tetra-hydro-furan-3-yl)-amide]
15 | 2.3 nM | CCCCc1noc(C)c1COc1cc(C(=O)NC2CCOCC2)[nH]n1 [Example 26, 5-(3-Butyl-5-methyl-isoxazol-4-ylmethoxy)-2H-pyrazole-3-carboxylic acid (tetrahydropyran-4-yl)-amide]
16 | 2.3 nM | Cc1onc(-c2ccc(F)cc2)c1COc1cc(C(=O)NC(C)C)[nH]n1 [Example 12, 5-[3-(4-Fluoro-phenyl)-5-methyl-isoxazol-4-ylmethoxy]-2H-pyrazole-3-carboxylic acid isopropylamide]
17 | 1.5 nM | Cc1onc(-c2ccc(F)cc2)c1COc1cc(C(=O)NC2CCOC2)n(C)n1 (racemic) [Example 72, Rac-5-[3-(4-Fluoro-phenyl)-5-methyl-isoxazol-4-ylmethoxy]-2-methyl-2H-pyrazole-3-carboxylic acid (tetrahydro-furan-3-yl)-amide]

Row | Ki | Compound
18 | 5.3 nM | Cc1onc(-c2ccc(F)cc2)c1COc1cc(C(=O)NCC(O)C(F)(F)F)n(C)n1 (single isomer, unassigned; (-)) [Example 68, (−)-5-[3-(4-Fluoro-phenyl)-5-methyl-isoxazol-4-ylmethoxy]-2-methyl-2H-pyrazole-3-carboxylic acid ((R or S)-3,3,3-trifluoro-2-hydroxy-propyl)-amide or enantiomer]
19 | 13 nM | Cc1onc(-c2ccc(F)cc2)c1CNc1cc(C(=O)NC(C)C)[nH]n1 [Example 154, 5-{[3-(4-Fluoro-phenyl)-5-methyl-isoxazol-4-ylmethyl]-amino}-2H-pyrazole-3-carboxylic acid isopropylamide]
20 | 26.2 nM | Cc1onc(-c2ccc(F)cc2)c1CNc1cc(C(=O)NC(C)CO)n(C)n1 (stereo not drawn) [Example 150, 5-{[3-(4-Fluoro-phenyl)-5-methyl-isoxazol-4-ylmethyl]-amino}-2-methyl-2H-pyrazole-3-carboxylic acid (2-hydroxy-1-methyl-ethyl)-amide]
21 | 1.8 nM | Cc1onc(-c2ccc(F)cc2)c1COc1cc(C(=O)NCC(O)C(F)(F)F)n(C)n1 (racemic) [Example 59, Rac-5-[3-(4-Fluoro-phenyl)-5-methyl-isoxazol-4-ylmethoxy]-2-methyl-2H-pyrazole-3-carboxylic acid (3,3,3-trifluoro-2-hydroxy-propyl)-amide]
22 | 51 nM | Cc1onc(-c2ccc(F)cc2)c1CNc1cc(C(=O)NC(C)CO)[nH]n1 (stereo not drawn) [Example 157, 5-{[3-(4-Fluoro-phenyl)-5-methyl-isoxazol-4-ylmethyl]-amino}-2H-pyrazole-3-carboxylic acid (2-hydroxy-1-methyl-ethyl)-amide]
23 | 42.7 nM | Cn1ccc(NC(=O)c2cc(OCc3c(-c4ccc(F)cc4)noc3CO)nn2C)n1 [Example 96, 5-[3-(4-Fluoro-phenyl)-5-hydroxymethyl-isoxazol-4-ylmethoxy]-2-methyl-2H-pyrazole-3-carboxylic acid (1-methyl-1H-pyrazol-3-yl)-amide]
24 | 29.5 nM | Cc1onc(-c2ccc(F)cn2)c1COc1cc(C(=O)NN(C)C)n(C)n1 [Example 82, 5-[3-(5-Fluoro-pyridin-2-yl)-5-methyl-isoxazol-4-ylmethoxy]-2-methyl-2H-pyrazole-3-carboxylic acid N′,N′-dimethyl-hydrazide]
25 | 0.5 nM | Cc1onc(-c2ccc(F)cc2)c1COc1cc(C(=O)NC2CCOCC2)[nH]n1 [Example 13, 5-[3-(4-Fluoro-phenyl)-5-methyl-isoxazol-4-ylmethoxy]-2H-pyrazole-3-carboxylic acid (tetrahydro-pyran-4-yl)-amide]
26 | 13.1 nM | Cc1onc(-c2ccc(F)cc2)c1COc1cc(C(=O)Nc2ccn(C)n2)n(C)n1 [Example 63, 5-[3-(4-Fluoro-phenyl)-5-methyl-isoxazol-4-ylmethoxy]-2-methyl-2H-pyrazole-3-carboxylic acid (1-methyl-1H-pyrazol-3-yl)-amide]
27 | 9.7 nM | Cc1onc(-c2ccccc2)c1COc1cc(C(=O)NC2CCOC2)n(C)n1 (racemic) [Example 43, Rac-2-Methyl-5-(5-methyl-3-phenyl-isoxazol-4-ylmethoxy)-2H-pyrazole-3-carboxylic acid (tetrahydro-furan-3-yl)-amide]
28 | 1.9 nM | Cc1onc(-c2ccc(F)cn2)c1COc1cc(C(=O)NN2CCOCC2)[nH]n1 [Example 23, 5-[3-(5-Fluoro-pyridin-2-yl)-5-methyl-isoxazol-4-ylmethoxy]-2H-pyrazole-3-carboxylic acid morpholin-4-ylamide]
29 | 9 nM | Cn1nc(OCc2c(-c3ccc(Cl)cc3)noc2CO)cc1C(=O)N1CC2(COC2)C1 [Example 109, {5-[3-(4-Chloro-phenyl)-5-hydroxymethyl-isoxazol-4-ylmethoxy]-2-methyl-2H-pyrazol-3-yl}-(2-oxa-6-aza-spiro[3.3]hept-6-yl)-methanone]
30 | 11.8 nM | Cc1onc(-c2ccc(F)cc2)c1/C=C/c1cc(C(=O)N2CCOCC2)n(C)n1 [Example 129, (5-{(E)-2-[3-(4-Fluoro-phenyl)-5-methyl-isoxazol-4-yl]vinyl}-2-methyl-2H-pyrazol-3-yl)-morpholin-4-yl-methanone]
31 | 16.7 nM | CCC(CO)NC(=O)c1cc(OCc2c(-c3ccc(F)cc3)noc2C)nn1C (single isomer, unassigned; (+)) [Example 70, (+)-5-[3-(4-Fluoro-phenyl)-5-methyl-isoxazol-4-ylmethoxy]-2-methyl-2H-pyrazole-3-carboxylic acid ((S or R)-1-hydroxymethyl-propyl)-amide]
32 | 3 nM | Cc1onc(-c2ccc(F)cc2)c1/C=C/c1cc(C(=O)NC(C)CO)[nH]n1 (stereo not drawn) [Example 139, 5-{(E)-2-[3-(4-Fluoro-phenyl)-5-methyl-isoxazol-4-yl]-vinyl}-2H-pyrazole-3-carboxylic acid (2-hydroxy-1-methyl-ethyl)-amide]
33 | 44.7 nM | CCCCc1noc(C)c1COc1cc(C(=O)NC(C)CO)n(C)n1 (racemic) [Example 87, Rac-5-(3-Butyl-5-methyl-isoxazol-4-ylmethoxy)-2-methyl-2H-pyrazole-3-carboxylic acid (2-hydroxy-1-methyl-ethyl)-amide]
